Key:
[1] = test system: K562-GRE reporter gene; experiment: K562-GRE reporter gene activity; format: cell-based; settings: 24 h, read-out: K562-GRE Reporter EC50
Experimental: To generate the parental K562-GRE cell line, K562 cells were seeded at 5×10^5 cells/well onto a 6-well plate (brand: Costar, Cat. No: 3516) containing 2 mL of complete medium (RPM1640, 10% FBS, penicillin-streptomycin) and cultured at 37° C. with 5% CO2 for 24 h. The next day, 3 μg of pNL2.2[NLucP/MMTV/Hygro-NANO] (Promega) and 3 μL of PLUS reagent (brand: Invitrogen, Cat. No: 11514-015) were diluted in 150 μL of Opti-MEM (brand: Gibco, Cat. No: 11058021) and incubated at room temperature for 5 min. The pNL2.2[NLucP/MMTV/Hygro-NANO] vector contains MMTV LTR (mouse mammary tumor virus long terminal repeat), which drives transcription of the luciferase reporter gene NanoLuc in response to activation of several nuclear receptors (e.g. glucocorticoid receptor and androgen receptor). After incubation, the diluted DNA solution was mixed with Lipofectamine LTX solution (brand: Invitrogen, Cat. No: 15338-100) (6 μL of Lipofectamine LTX+144 μL of Opti-MEM) in a 1:1 ratio, pre-incubated, and incubated at room temperature for 15 min to form a DNA-Lipofectamine LTX complex. After incubation, 300 μL of the DNA-Lipofectamine complex was added directly to the cell wells. The K562 cells were transfected at 37° C. with 5% CO2 for 24 h. After transfection, the cells were washed with 3 mL of PBS and selectively grown for two weeks with complete growth medium containing 125 μg/mL hygromycin B (brand: Invitrogen, Cat. No: 10687010). “K562-GRE (pNL2.2[NLucP/MMTV/Hygro-NANO])” cells were generated.
After mixing, the cells were cultured in an incubator at 37° C. for 24 h. After 24 h of incubation, an equal volume of 100 μL of Nano-Glo luciferase assay system (brand: Promega, Cat. No: N1120) was added to the cells, the mixture was reacted in a shaker at […] for 10 min, and the chemiluminescence values were detected using the PHERAstar instrument. The antibody binding curves were plotted using the logarithmic value of the antibody concentration as the abscissa and the corresponding chemiluminescence reading as the ordinate, and the EC50 value was calculated by four-parameter fitting (GraphPad Prism9).

[2] = target: Glucocorticoid Receptor GR (Homo sapiens (Human), UniProt P04150); experiment: Binding activity to glucocorticoid receptor GR (Polarscreen fluorescence polarization kit); settings: GR full length, 2 h
Sequence of Glucocorticoid Receptor GR (P04150 whole entry): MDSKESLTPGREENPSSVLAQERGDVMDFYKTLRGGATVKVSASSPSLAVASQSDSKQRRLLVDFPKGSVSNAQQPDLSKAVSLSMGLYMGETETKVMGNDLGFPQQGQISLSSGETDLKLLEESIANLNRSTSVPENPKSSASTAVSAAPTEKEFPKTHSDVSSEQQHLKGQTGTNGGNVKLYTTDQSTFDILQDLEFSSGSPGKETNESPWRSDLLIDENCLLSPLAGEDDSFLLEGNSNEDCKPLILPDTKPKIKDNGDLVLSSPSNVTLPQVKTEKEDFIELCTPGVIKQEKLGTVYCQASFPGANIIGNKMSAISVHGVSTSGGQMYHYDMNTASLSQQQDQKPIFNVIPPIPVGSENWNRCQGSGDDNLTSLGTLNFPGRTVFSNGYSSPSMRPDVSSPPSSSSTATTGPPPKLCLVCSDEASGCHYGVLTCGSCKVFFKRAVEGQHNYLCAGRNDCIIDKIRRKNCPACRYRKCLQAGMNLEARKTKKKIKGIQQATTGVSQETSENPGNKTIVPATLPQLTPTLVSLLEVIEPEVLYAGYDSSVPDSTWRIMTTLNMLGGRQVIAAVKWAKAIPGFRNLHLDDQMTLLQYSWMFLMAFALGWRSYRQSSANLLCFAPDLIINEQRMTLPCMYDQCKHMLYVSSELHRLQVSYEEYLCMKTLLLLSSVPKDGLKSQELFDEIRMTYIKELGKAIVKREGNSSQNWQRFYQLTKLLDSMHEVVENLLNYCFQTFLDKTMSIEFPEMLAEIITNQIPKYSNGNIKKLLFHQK
Experimental: The binding activity of the compound to GR was determined using the Polarscreen Glucocorticoid Receptor Assay Kit, Red (brand: Thermo, Cat. No: A15898). […] The highest concentration was 100 μM, 8 concentrations in total. […] With the log value of the final concentration of the compound as the X axis and the mP value as the Y axis, data was input into the processing software Graphpad Prism 9, and the EC50 value was calculated by four-parameter fitting

[3] = target: CYP2C9 (Homo sapiens (Human), UniProt P11712); experiment: Inhibition of CYP2C9 enzymatic activity in human liver microsomes; format: in vitro ADME; settings: human liver microsome, substrate diclofenac, 5 min
Sequence of CYP2C9 (P11712 whole entry): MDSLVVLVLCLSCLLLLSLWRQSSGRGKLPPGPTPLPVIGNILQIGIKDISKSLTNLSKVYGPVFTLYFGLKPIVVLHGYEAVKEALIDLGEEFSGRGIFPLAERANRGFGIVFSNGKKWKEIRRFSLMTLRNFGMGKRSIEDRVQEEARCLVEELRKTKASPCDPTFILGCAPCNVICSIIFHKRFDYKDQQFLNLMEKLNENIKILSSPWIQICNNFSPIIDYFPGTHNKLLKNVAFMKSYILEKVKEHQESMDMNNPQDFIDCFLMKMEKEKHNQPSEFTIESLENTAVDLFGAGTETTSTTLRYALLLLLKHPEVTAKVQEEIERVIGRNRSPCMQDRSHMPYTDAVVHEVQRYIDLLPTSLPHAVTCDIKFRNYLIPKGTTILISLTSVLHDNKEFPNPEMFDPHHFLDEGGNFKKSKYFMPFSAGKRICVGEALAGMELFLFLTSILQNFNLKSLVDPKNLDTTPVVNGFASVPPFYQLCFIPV
Experimental: The inhibition of CYP2C9 and CYP2D6 activity by the compound of the present invention was determined using the following method.
• 1. Human liver microsome (Corning 452117) • 2. NADPH (Solarbio 705Y021) • 3. Positive substrates diclofenac (Sigma SLBV3438) and dextromethorphan (TRC 3-EDO-175-1) • 4. Positive inhibitors sulfaphenazole (D. Ehrenstorfer GmbH 109012) and quinidine (TCI WEODL-RE) • 5. AB Sciex Triple Quad 5500 liquid chromatography-mass spectrometry system
• 1. Preparation of 100 mM phosphate-buffered saline (PBS): 7.098 g Na2HPO4 was weighed. 500 mL pure water was added. The mixture was dissolved by sonication to give solution A. 3.400 g KH2PO4 was weighed. 250 mL pure water was added. The mixture was dissolved by sonication to give solution B. The solution A was placed in a stirrer, and the solution B was slowly added until the pH reached 7.4, so that the 100 mM PBS buffer was prepared. • 2. A 10 mM NADPH solution was prepared with a 100 mM PBS buffer. A 10 mM stock solution of the compound of the present invention was diluted with DMSO to give a compound working solution at a concentration of 200×(6000, 2000, 600, 200, 60, 20, and 0 μM). […]
The reduction of metabolite production in the treatment groups versus the control group was compared by the peak area ratios of the sample to the internal standard, and the IC50 value was calculated using Excel XLfit 5.3.1.3.

C[C@]12C=CC(=O)C=C1CC[C@@H]1[C@@H]2[C@@H](O)C[C@@]2(C)[C@H]1C[C@H]1O[C@@H](c3ccc(Cc4cc(N)c5c(c4)CCO5)cc3)O[C@]12C(=O)CO [Compound 009, (6aR,6bS,7S,8aS,8bS,10R,11aR,12aS,12bS)-10-(4-((7-amino-2,3-dihydrobenzofuran-5-yl)methyl)phenyl)-7-hydroxy-8b-(2-hydroxyacetyl)-6a,8a-dimethyl-6a,6b,7,8,8a,8b,11a,12,12a,12b-decahydro-1H-naphtho[2′,1′:4,5]indeno[1,2-d][1,3]dioxolan-4(2H)-one]
EC50 [1]: 5.76 nM | EC50 [2]: 20.2 nM | IC50 [3]: 7200 nM

Reference: patent publication US20240307415A1, “STEROID COMPOUND, AND PHARMACEUTICAL COMPOSITION THEREOF AND USE THEREOF” (JIANGSU SIMCERE PHARMACEUTICAL CO., LTD., priority 2021, published 2024)
